Measurements reported in patent US8124617B2, “Imidazopyridine compounds” (Takeda San Diego, Inc., priority 2005, dated 2012).

Biological target: T1, glucokinase (residues 12-465 of the human enzyme) (Homo sapiens, UniProt P35557)
T1 construct: FLAG (vector pFLAG-CTC) (C); made in house; host or cells: E. coli DH10b-T1r (pFLAG-CTC)
T1 sequence (P35557 12-465): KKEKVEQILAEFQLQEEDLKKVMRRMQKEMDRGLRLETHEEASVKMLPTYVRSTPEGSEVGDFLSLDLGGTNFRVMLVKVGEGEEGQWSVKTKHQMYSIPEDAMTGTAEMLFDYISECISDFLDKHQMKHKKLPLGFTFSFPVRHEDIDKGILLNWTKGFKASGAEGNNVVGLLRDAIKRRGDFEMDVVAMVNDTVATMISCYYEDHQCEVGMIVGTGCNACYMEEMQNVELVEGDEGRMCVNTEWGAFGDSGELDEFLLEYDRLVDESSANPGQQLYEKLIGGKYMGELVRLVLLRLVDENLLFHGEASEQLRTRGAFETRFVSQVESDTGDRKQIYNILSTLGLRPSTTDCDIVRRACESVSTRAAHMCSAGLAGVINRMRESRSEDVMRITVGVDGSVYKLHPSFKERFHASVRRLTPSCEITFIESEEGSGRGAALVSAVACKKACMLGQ
Assay: Measurement of GK activation value (ATP/glucose, luciferase luminescence)
Format: biochemical
Conditions: values given as ranges; for EC50: Kact = concentration that displays 50% of the maximal increase in GK activity, room temperature, 60 min, read-out: pKact; for Emax: calculated maximal gain in GK enzyme activity at a saturating concentration of the compound, read-out: % ACTmaxc
Excerpt: Purified glucokinase may be obtained as follows. DNA encoding residues 12-465 of the full-length sequence of the human enzyme may be amplified by PCR and cloned into the HindIII and EcoRI sites of pFLAG-CTC (Sigma). SEQ ID No. 5 corresponds to residues 12-465 of glucokinase.
The expression of recombinant glucokinase protein may be carried out by transformation and growth of DH10b-T1r E. coli cells incorporating the (pFLAG-CTC) plasmid in LB media. Protein expression can be induced in this system by the addition of IPTG to the culture medium.
Recombinant protein may be isolated from cellular extracts by passage over Sepharose Q Fast Flow resin (Pharmacia). This partially purified GK extract may then be further purified by a second passage over Poros HQ10 (Applied Biosystems). The purity of GK may be determined on denaturing SDS-PAGE gel. Purified GK may then be concentrated to a final concentration of 20.0 mg/ml. After flash freezing in liquid nitrogen, the proteins can be stored at −78° C. in a buffer containing 25 mM TRIS-HCl pH 7.6, 50 mM NaCl, and 0.5 mM TCEP.
The assay reaction may be initiated as follows: 4 μl of substrate mixture (12.5 μM ATP and 12.5 mM Glucose) was added to each well of the plate, followed by the addition of 2 μl of activator (2 fold serial dilutions for 11 data points for each activator) containing 10% DMSO. 4 μL of 1.25 nM GK solution may be added to initiate the reaction. The reaction mixture may then be incubated at room temperature for 60 min, and quenched and developed by addition of 10 μL of luciferase reagent. Luminescence intensities of the resulting reaction mixtures may be measured after a 10 min incubation at room temperature. The luminescence intensity may be measured by using the Analyst HT from LJL Biosystems.
pKact and % ACTmax values may be calculated by non-linear curve fitting of the compound concentrations and luminescence intensities to a standard inhibition/activation equation.

EC50 [µM]	Emax [%]	SMILES
0.126 to 0.316	> 70	Cn1ccnc1COc1cc(OCc2ccccc2)cc(-c2nc3cccnc3[nH]2)c1 [Example 162, 2-(3-(benzyloxy)-5-((1-methyl-1H-imidazol-2-yl)methoxy)phenyl)-3H-imidazo[4,5-b]pyridine]
0.126 to 0.316	50 to 69.9	COC[C@@H](C)Oc1cc(OCc2ccccc2F)cc(-c2nc3cc(Cl)cnc3[nH]2)c1 [Example 173, (R)-6-chloro-2-(3-(2-fluorobenzyloxy)-5-(1-methoxypropan-2-yloxy)phenyl)-3H-imidazo[4,5-b]pyridine]
0.126 to 0.316	30 to 49.9	COC[C@@H](C)Oc1cc(OCc2ccccc2F)cc(-c2nc3cc(Br)cnc3[nH]2)c1 [Example 174, (R)-6-bromo-2-(3-(2-fluorobenzyloxy)-5-(1-methoxypropan-2-yloxy)phenyl)-3H-imidazo[4,5-b]pyridine]
0.398 to 1	20 to 29.9	Brc1cnc2[nH]c(-c3ccccc3Oc3cccnc3)nc2c1 [Example 244, 6-bromo-2-(2-(pyridin-3-yloxy)phenyl)-3H-imidazo[4,5-b]pyridine]
< 0.1	> 70	Cn1ccnc1COc1cc(OCc2ccccc2F)cc(-c2nc3cccnc3[nH]2)c1 [Example 165, 2-(3-(2-fluorobenzyloxy)-5-((1-methyl-1H-imidazol-2yl)methoxy)phenyl)-3H-imidazo[4,5-b]pyridine]
0.398 to 1	> 70	Fc1ccccc1COc1cc(Oc2ncccn2)cc(-c2nc3cc(Br)cnc3[nH]2)c1 [Example 245, 6-bromo-2-(3-(2-fluorobenzyloxy)-5-(pyrimidin-2-yloxy)phenyl)-3H-imidazo[4,5-b]pyridine]
0.126 to 0.316	20 to 29.9	CC(C)Oc1cc(OCc2ccccc2)cc(-c2nc3cccnc3[nH]2)c1 [Example 158, 2-(3-(benzyloxy)-5-isopropoxyphenyl)-3H-imidazo[4,5-b]pyridine]
< 0.1	> 70	Cn1ccnc1COc1cc(OCc2ccccc2F)cc(-c2nc3cc(Br)cnc3[nH]2)c1 [Example 167, 6-bromo-2-(3-(2-fluorobenzyloxy)-5-((1-methyl-1H-imidazol-2-yl)methoxy)phenyl)-3H-imidazo[4,5-b]pyridine]
0.126 to 0.316	> 70	Cn1ccnc1COc1cc(OCc2ccccc2F)cc(-c2nc3cc(CCCO)cnc3[nH]2)c1 [Example 168, 3-(2-(3-(2-fluorobenzyloxy)-5-((1-methyl-1H-imidazol-2-yl)methoxy)phenyl)-3H-imidazo[4,5-]pyridin-6-yl)propan-1-ol]
0.398 to 1	50 to 69.9	COC[C@@H](C)Oc1cc(OCc2ccccc2F)cc(-c2nc3cccnc3[nH]2)c1 [Example 172, (R)-2-(3-(2-fluorobenzyloxy)-5-(1-methoxypropan-2-yloxy)phenyl)-3H-imidazo[4,5-b]pyridine]
0.126 to 0.316	30 to 49.9	Cn1ccnc1CNc1cc(NS(=O)(=O)c2ccccc2)cc(-c2nc3cc(Br)cnc3[nH]2)c1 [Example 213, N-(3-(6-bromo-3H-imidazo[4,5-b]pyridin-2-yl)-5-((1-methyl-1H-imidazol-2-yl)methylamino)phenyl)benzenesulfonamide]
< 0.1	50 to 69.9	Cn1ccnc1COc1cc(OCc2ccccc2)cc(-c2nc3cc(Br)cnc3[nH]2)c1 [Example 163, 2-(3-(benzyloxy)-5-((1-methyl-1H-imidazol-2-yl)methoxy)phenyl)-6-bromo-3H-imidazo[4,5-b]pyridine]
< 0.1	> 70	Cn1ccnc1COc1cc(OCc2ccccc2F)cc(-c2nc3cc(Cl)cnc3[nH]2)c1 [Example 166, 6-chloro-2-(3-(2-fluorobenzyloxy)-5-((1-methyl-1H-imidazol-2-yl)methoxy)phenyl)-3H-imidazo[4,5-b]pyridine]
0.398 to 1	20 to 29.9	CC(C)Oc1ccc(OCc2ccccc2)cc1-c1nc2cc(-c3cccc(F)c3)cnc2[nH]1 [Example 71, 2-[5-(benzyloxy)-2-isopropoxyphenyl]-6-(3-fluorophenyl)-3H-imidazo[4,5-b]pyridine]
0.126 to 0.316	50 to 69.9	Cn1ccnc1COc1cc(OCCc2ccsc2)cc(-c2nc3cc(Br)cnc3[nH]2)c1 [Example 164, 6-bromo-2-(3-((1-methyl-1H-imidazol-2-yl)methoxy)-5-(2-(thiophen-3-yl)ethoxy)phenyl)-3H-imidazo[4,5-b]pyridine]
0.398 to 1	20 to 29.9	CC(C)Oc1cc(OCCCc2ccccc2)cc(-c2nc3cccnc3[nH]2)c1 [Example 159, 2-(3-isopropoxy-5-(3-phenylpropoxy)phenyl)-3H-imidazo[4,5-b]pyridine]
0.126 to 0.316	30 to 49.9	COc1ccc(OCc2ccccc2)cc1-c1nc2cc(Br)cnc2[nH]1 [Example 243, 2-(5-(benzyloxy)-2-methoxyphenyl)-6-bromo-3H-imidazo[4,5-b]pyridine]
0.398 to 1	> 70	CC(C)Oc1ccc(/C=C/c2ccccc2)cc1-c1nc2cccnc2[nH]1 [Example 196, (E)-2-(2-isopropoxy-5-styrylphenyl)-3H-imidazo[4,5-b]pyridine]
0.398 to 1	> 70	COC[C@H](C)Oc1cc(Oc2ccc(S(C)(=O)=O)cc2)cc(-c2nc3cccnc3[nH]2)c1 [Example 181, (S)-2-(3-(1-methoxypropan-2-yloxy)-5-(4-(methylsulfonyl)phenoxy)phenyl)-3H-imidazo[4,5-b]pyridine]
0.398 to 1	30 to 49.9	Cn1ccnc1CNc1cc(NS(C)(=O)=O)cc(-c2nc3cc(Br)cnc3[nH]2)c1 [Example 214, N-(3-(6-bromo-3H-imidazo[4,5-b]pyridin-2-yl)-5-((1-methyl-1H-imidazol-2-yl)methylamino)phenyl)methanesulfonamide]
< 0.1	30 to 49.9	CC(C)Oc1cc(OCCc2ccccc2)cc(-c2nc3cccnc3[nH]2)c1 [Example 161, 2-(3-isopropoxy-5-phenethoxyphenyl)-3H-imidazo[4,5-b]pyridine]
0.398 to 1	20 to 29.9	COC[C@H](C)Oc1cc(OCc2ccccc2F)cc(-c2nc3cc(CCCO)cnc3[nH]2)c1 [Example 177, (S)-3-(2-(3-(2-fluorobenzyloxy)-5-(1-methoxypropan-2-yloxy)phenyl)-3H-imidazo[4,5-b]pyridin-6-yl)propan-1-ol]
0.398 to 1	30 to 49.9	COc1ccc(/C=C/c2ccncc2)cc1-c1nc2cccnc2[nH]1 [Example 246, (E)-2-(2-methoxy-5-(2-(pyridin-4-yl)vinyl)phenyl)-3H-imidazo[4,5-b]pyridine]

SMILES	EC50 [µM]	Emax [%]
Brc1cnc2[nH]c(-c3ccccc3Oc3ccccc3)nc2c1 [Example 188, 6-bromo-2-(2-phenoxyphenyl)-3H-imidazo[4,5-b]pyridine]	0.398 to 1	30 to 49.9
